Results as given in patent publication US11771671B2, “Use of (1S,3S)-3-amino-4-(difluoromethylidene) cyclopentane-1-carboxylic acid and (S)-3-amino-4-(difluoromethylenyl)cyclopent-1-ene-1-carboxylic acid in the treatment of tinnitus, acute sensorineural hearing loss, Meniere's disease, Tourette's syndrome, attention deficit hyperactivity disorder and …” (Ovid Therapeutics Inc., priority 2018, dated 2023).

Experiment: plasma pharmacokinetics
Format: in vivo

N[C@H]1C[C@@H](C(=O)O)CC1=C(F)F [(1S,3S)-3-amino-4-(difluoromethylidene)cyclopentane-1-carboxylic acid]
AUCs dose proportionality (dose range of 5 mg-500 mg): greater than proportional increase
C. dose proportionality (dose range of 5 mg-500 mg): increases in a dose proportional manner
half-life (plasma, read-out: plasma elimination half-life): 4 to 6 h
